Three molecules from patent US11648208B2, “Nano complex comprising a nano drug delivery matrix; and a ginseng extract or a ginsenoside isolated therefrom” (priority 2016, dated 2023) can be followed below.

In data set [1] the test system is Salmonella enterica [ATCC 13076]. Put plainly: Antimicrobial activity, disk diffusion method on Muller-Hinton agar. To be noted: in mm. In kind it is cell-based.
In data set [2] the test system is Escherichia coli [ATCC 10798]. The data set is described as above. Type of data set: cell-based. To be noted: in mm.
Data set [3] concerns Vibrio parahaemolyticus [ATCC 33844]. Described as above. In kind it is cell-based. Conditions: in mm.
Data set [4] in a line: Solubility for water (microscopic images, HPLC of supernatants). In kind it is physicochemical. An excerpt:
High water solubility advantageously enhances pharmacokinetic properties such as bioavailability, membrane permeability, therapeutic activity, etc.

The subject of data set [5] is keratinocyte (HaCaT Skin). The data set can be described thus: Cytotoxicity by MTT assay on keratinocytes. Conditions: up to a concentration of 15 μM. (Formazan colour is commonly taken as a measure of viable cells.)

`CN(C)[C@@H]1C(=O)C(C(N)=O)=C(O)[C@@]2(O)C(=O)C3=C(O)c4c(O)cccc4[C@@](C)(O)[C@H]3C[C@@H]12` [Tetracyclin, tetracycline]: the Zone of inhibition was found to be 30 ± 0.3 in data set [1], 20 ± 0.1 in data set [2] and 25 ± 0.6 in data set [3].
For `CC(C)=CCC[C@](C)(O)[C@H]1CC[C@]2(C)[C@@H]1[C@H](O)C[C@@H]1[C@@]3(C)CC[C@H](O[C@@H]4O[C@H](CO)[C@@H](O)[C@H](O)[C@H]4O)C(C)(C)[C@@H]3CC[C@]12C` [Rh2, 20(S)-protopanaxdiol-3-O-β-D-glucopyranoside], the solubility for water entry in data set [4] is given as “insoluble even at a low concentration”. Also, in data set [5], the “cytotoxicity on keratinocyte cell line” value was “showed cytotoxicity”.
As for `CC(C)=CCC[C@](C)(O[C@@H]1O[C@H](CO)[C@@H](O)[C@H](O)[C@H]1O)[C@H]1CC[C@]2(C)[C@@H]1[C@H](O)C[C@@H]1[C@@]3(C)CC[C@H](O)C(C)(C)[C@@H]3CC[C@]12C` [CK, ginsenoside Compound K], the solubility for water entry in data set [4] is reported as “insoluble even at a low concentration”.
